Patent US20060046972A1, “Cytotoxic nucleoside analog compound 003 for treating cancer” (Parker Hughes Institute, priority 2004, published 2006)
Entries after “also recorded” stand apart in the source; their conditions may differ. Read-outs that look alike come from different tables or passages of the source.

How the values were obtained:
[1] = test system: BT20 breast cancer cells; assay: Confocal laser scanning microscopy of microtubules / mitotic spindle, BT20; format: cell-based, human; settings: 185 μM for 24 hours (AZT: similar concentrations)
Experimental: Immunofluorenscence was used to examine the spindle features of human cancer cell lines treated with Compound 003 or 0.5% DMSO. […] The coverslips were incubated with antibodies raised against α-tubulin, γ-tubulin (Sigma Chemical Co., St Louis, Mo.) (40 min 37° C.), washed in PBS-Tx-100, and incubated with an appropriate secondary antibody conjugated to FITC (Jackson ImmunoResearch, Westgrove, Pa.). Cellular DNA was labeled with 5 μM TOTO3 (Molecular Probes, Eugene, Oreg.) for 20 minutes. Coverslips were immediately inverted onto slides in Vectashield (Vector Labs, Burlingame, Calif.) to prevent photobleaching, sealed with nail varnish and stored at −20° C. The slides were examined using a Bio-Rad MRC-1024 Laser Scanning Confocal Microscope equipped with a Kr/Ar laser (BioRad, Hercules, Calif.) mounted on a Nikon Eclipse E800 upright microscope with high numerical aperture objectives (Nikon, Melville, N.Y.). Digital data were processed using Lasersharp (BioRad) and Adobe Photoshop software (Adobe Systems, Mountain View, Calif.). ( See, for example, Navara, et al., 2001, Anticancer Drugs. 12:369; Malaviya, et al., 2002, Leuk Lymphoma. 43, 1329; and Ghosh, 1998, Clin Cancer Res. 4, 2657).

[2] = Pharmacokinetics in CD-1 mice after intravenous or oral Compound 003; format: in vivo; settings: female, CD-1, mouse
Experimental: Each plasma sample (200 μL) was mixed 1:4 with acetone (800 μL) and vortexed for at least 30 seconds. Following centrifugation, the supernatant was transferred into a clean tube and dried under nitrogen. A 50 μL solution of 50% methanol in 200 mM HCl was used to reconstitute the extraction residue, and 35 μL was subjected to analytical HPLC. The analytical column used was a 250×4 mm Lichrospher 100, RP-18 (5 μm) and the guard column was a 4×4 mm Lichrospher 100, RP-18 (5 μm). The mobile phase was degassed automatically by the electronic degasser system. The column was equilibrated and eluted under gradient conditions utilizing a flow rate of 1.0 ml/min at ambient temperature. The linear gradient mobile phase was: 0 minute, 100% 10 mM ammonium phosphate buffer (pH 3.7); 20 minutes, 20% acetonitrile, 80% ammonium phosphate buffer (pH 3.7); 20.1-50 minutes, 28% acetonitrile, 72% water (0.1% HAC). The wavelength of detection was set at 270 nm. Peak width, response time and slit werep, set at >0.03 minutes, 0.5 s and 8 nm, respectively.
Female CD-1 mice (6-8 weeks old) (Charles River, Wilmington, Mass.) were housed in a USDA-accredited animal care facility under standard environmental conditions (12-h light/12-h dark photoperiod, 22±1° C., 60±10% relative humidity). All rodents were housed in microisolator cages (Lab Products, Inc., N.J.) containing autoclaved bedding. Mice were allowed free access to autoclaved pellet food and tap water throughout the study. All animal studies are approved by the Parker Hughes Institute Animal Care and Use Committee, and all animal care procedures conformed to the principles outlined in the Guide for the Care and Use of Laboratory Animals (National Research Council;. National Academy Press, Washington D.C. 1996).
Compound 003 (200 mg/kg) dissolved in DMSO was administered intravenously via tail vein to non-fasted mice or orally via gavage to 12-h fasted mice. Four to six mice per time-point were used for pharmacokinetic studies. Blood samples (˜500 μL) were obtained from the ocular venous plexus by retro-orbital venipuncture at 0, 5, 10, 15, 30, 45 minutes, and 1 h, 1.5 h, 2 h, 4 h, 6 h and 8 h after oral administration. All collected blood-samples were heparinized and centrifuged at 7000×g for 5 minutes to separate the plasma fraction from the whole blood. The plasma samples were then processed immediately using the extraction procedure described above.
Pharmacokinetic modeling and parameter calculations were carried out using the WinNonlin Professional Version 3.0 (Pharsight, Inc., Mountain, Calif.) pharmacokinetics software (Chen, C. L., et al., (1999) Pharm Res. 16:117; Chen, C. L., et al., (1999) Pharm Res. 16:1003; Uckun, F. M., et al., (1999) Clin Cancer Res. 5:2954). An appropriate model was chosen on the basis of the lowest sum of weighted squared residuals, the lowest Schwartz Criterion (SC), the lowest Akaike's Information Criterion (AIC) value, the lowest standard errors of the fitted parameters, and the dispersion of the residuals. The elimination half-life was estimated by linear regression analysis of the terminal phase of the plasma concentration-time profile. The systemic clearance (CL) was determined by dividing the dose by the AUC.

[3] = Wang et al. (1996); cited from earlier work
[4] = test system: esterase-mediated metabolism of Compound 003 in BT20 cells; assay: Inhibition of ala-AZT-MP formation by esterase inhibitors, BT20; format: cell-based, human
Experimental: (§1) BT20 breast cancer cells were cultured in a medium composed of MEM, 10% FBS, 0:1 mM of nonessential amino acids and Earles salts, and 1% penicillin/streptornyclin Nalm6 cells were maintained in a medium composed of RPMI, 10% fetal bovine serum (FBS) and 1% penicillin/streptomycin. BT20 cells were seeded in 6-cm petri-dishes at 4 million cells per plate. Nalm6 cells at a density of 10^6 cells per ml were also utilized in drug metabolism study. Either one plate of adherent cells or 10 million nonadherent cells were utilized at each experiment. Cells were incubated with DMSO or 100 μM of esterase inhibitor, paraoxon, bis(p-nitrophenyl)phosphate (BNPP), physostigmine, or phenylmethylsulfonyl fluoride (PMSF) (Sigma) for 3.0 minutes, followed by 1 hour incubation of 100 μM Compound 003. After incubation, cells were washed two times with ice-cold PBS, and extracted by addition of 60% methanol. Cell lysates were kept at −20° C. overnight, after which lysates were centrifuged at 15,000×g for 10 minutes to remove the cell debris. One hundred microliters of these lysates were injected directly to HPLC. The amount of metabolite product of the esterase reaction, ala-AZT-MP, was measured to examine the effect of inhibitors on esterase-mediated metabolism of Compound 003.

[5] = test system: BT20 breast cancer cell line; assay: Intracellular metabolism of Compound 003 to ala-AZT-MP, BT20; format: in vitro ADME, human
Excerpt: (§2) Intracellular metabolism of Compound 003 was studied in CEM T-lineage lymphoma cell line, BT20 breast cancer cell line, T98 glioblastoma cell line, and Nalm-6 B-lineage leukemia cell line. CEM and Nalm6 cells were maintained in RPMI supplemented with 10% fetal bovine serum, and 1% penicillin/streptomycin. BT20 and T98 cells w.ere cultured in a medium composed of MEM, 10% fetal bovine serum, 0.1-mM of nonessential amino acids and Earles salts, and 1% penicillin/streptomycin. CEM and Nalm6 cells at a density of 10^6 cells per ml were utilized in the drug metabolism study. BT20 and T98 cells were seeded in 6-cm petri-dishes at 4 million cells and 2 million cells per plate, respectively, the day before the experiment. Either one plate of adherent cells or 10 million non-adherent cells was utilized at each time point. Cells were incubated with various concentrations of the compounds up to 24 hrs at 37° C. After incubation, cells were washed 2 times with ice-cold PBS, and extracted by addition of 0.5-1 ml of 60% methanol. Cell lysates were kept at −20° C. overnight, after which lysates were centrifuged at 15000×g for 10 minutes to remove the cell debris. One hundred microliters of these lysates were injected directly to HPLC. For half-life study, cells at the same density as in drug metabolism study were treated with 100 μM Compound 003 for 2 hrs, after which cells were washed 2 times with ice-cold PBS, and resuspended in warm media until the time they were harvested. For uptake and efflux study, cells were seeded at 2 million cells in 2 ml of media. […] With efflux experiments, cells 1×10^6/mL (the same density as in the uptake study) were incubated with 100 μM Compound 003 for 1 hr, washed 2 times with ice-cold PBS, and resuspended with culture medium without drug, and the metabolite efflux from cells to the medium was measured after 6 hr of incubation. […]

[6] = test system: CEM T-lineage lymphoma cell line; assay: Intracellular metabolism of Compound 003 to ala-AZT-MP, CEM; format: in vitro ADME, human
Excerpt: as §2, with “methanol.” for “methanol. Cell lysates were kept at −20° C. overnight, after which lysates were centrifuged at 15000×g for 10 minutes to remove the cell debris. One hundred microliters of these lysates were injected directly to HPLC. For half-life study, cells at the same density as in drug metabolism study were treated with 100 μM Compound 003 for 2 hrs, after which cells were washed 2 times with ice-cold PBS, and resuspended in warm media until the time they were harvested. For uptake and efflux study, cells were seeded at 2 million cells in 2 ml of media.”

[7] = test system: Nalm-6 B-lineage leukemia cell line; assay: Intracellular metabolism of Compound 003 to ala-AZT-MP, Nalm6; format: in vitro ADME, human
Excerpt: as §2, with “methanol.” for “methanol. Cell lysates were kept at −20° C. overnight, after which lysates were centrifuged at 15000×g for 10 minutes to remove the cell debris. One hundred microliters of these lysates were injected directly to HPLC. For half-life study, cells at the same density as in drug metabolism study were treated with 100 μM Compound 003 for 2 hrs, after which cells were washed 2 times with ice-cold PBS, and resuspended in warm media until the time they were harvested. For uptake and efflux study, cells were seeded at 2 million cells in 2 ml of media.”

[8] = test system: BT20 cells; assay: Metabolite efflux from cells to the medium; format: in vitro ADME, human; settings: 100 μM Compound 003 1 hr, efflux after 6 hr
Excerpt: Intracellular metabolism of Compound 003 was studied in CEM T-lineage lymphoma cell line, BT20 breast cancer cell line, T98 glioblastoma cell line, and Nalm-6 B-lineage leukemia cell line. CEM and Nalm6 cells were maintained in RPMI supplemented with 10% fetal bovine serum, and 1% penicillin/streptomycin. BT20 and T98 cells w.ere cultured in a medium composed of MEM, 10% fetal bovine serum, 0.1-mM of nonessential amino acids and Earles salts, and 1% penicillin/streptomycin. CEM and Nalm6 cells at a density of 10^6 cells per ml were utilized in the drug metabolism study. BT20 and T98 cells were seeded in 6-cm petri-dishes at 4 million cells and 2 million cells per plate, respectively, the day before the experiment. Either one plate of adherent cells or 10 million non-adherent cells was utilized at each time point. Cells were incubated with various concentrations of the compounds up to 24 hrs at 37° C. After incubation, cells were washed 2 times with ice-cold PBS, and extracted by addition of 0.5-1 ml of 60% methanol. […] With efflux experiments, cells 1×10^6/mL (the same density as in the uptake study) were incubated with 100 μM Compound 003 for 1 hr, washed 2 times with ice-cold PBS, and resuspended with culture medium without drug, and the metabolite efflux from cells to the medium was measured after 6 hr of incubation.

[9] = test system: esterase-mediated metabolism of Compound 003 in Nalm6 cells; assay: Inhibition of ala-AZT-MP formation by esterase inhibitors, Nalm6; format: cell-based, human; settings: 100 μM inhibitor, then 100 μM Compound 003 1 hour
Experimental: as §1

[10] = iv, plasma metabolite following i.v. 200 mg/kg Compound 003
[11] = iv, plasma metabolite following i.v. 200 mg/kg Compound 003, read-out: elimination half-life (t1/2)
[12] = po, plasma metabolite following p.o. 200 mg/kg Compound 003
[13] = plasma metabolite following oral 200 mg/kg Compound 003, read-out: elimination half-life

| Structure (SMILES) | AUC [2, 10] [µM·h] | Cmax [2, 10] [µM] | Tmax [2, 10] [min] | half-life [2, 11] [min] | AUC [2, 12] [µM·h] | Cmax [2, 12] [µM] | Tmax [2, 12] [min] | half-life [2, 13] [min] | potency order of esterase inhibitors [4] | other results |
| --- | --- | --- | --- | --- | --- | --- | --- | --- | --- | --- |
| Cc1cn([C@H]2C[C@H](N=[N+]=[N-])[C@@H](CO)O2)c(=O)[nH]c1=O [AZT, 3′-azido-3′-deoxythymidine, reference compound] | 152 | 64.3 | 50.4 | 35 | 386 ± 124 | 46.9 | 144 | 149 |  | effect on microtubules [1]: no effect on microtubules; elimination t1/2 of AZT given as such [3]: ~21.2 min |
| O=[N+]([O-])c1ccc(OP(=O)(O)Oc2ccc([N+](=O)[O-])cc2)cc1 [BNPP, Bis(p-nitrophenyl)phosphate] |  |  |  |  |  |  |  |  | paraoxon>BNPP>PMSF>physostigmine |  |
| O=S(=O)(F)Cc1ccccc1 [PMSF, phenylmethyl sulfonyl fluoride] |  |  |  |  |  |  |  |  | paraoxon>BNPP>PMSF>physostigmine |  |
| Cc1cn(C2CC(N=[N+]=[N-])C(COP(=O)(O)NC(C)C(=O)O)O2)c(=O)[nH]c1=O (centres unmarked) [ala-AZT-MP, 3′-azido-3′-deoxythymidine-5′-alaninyl phosphate] | 191 | 1880 | 1.2 | 33.2 | 20.7 ± 8.5 | 9.8 | 4.5 | 94.5 |  | further intracellular conversion of ala-AZT-MP [5]: preferentially converted to AZT-MP; intracellular accumulation of ala-AZT-MP, BT20 relative to the other three cell lines ([5]; 25-100 μM Compound 003, 3 hr): 6-12 fold; further intracellular conversion of ala-AZT-MP [6]: only AZT was detectable; level of ala-AZT-MP formation, CEM relative to Nalm6 ([6]; intact cells): 2 fold; further intracellular conversion of ala-AZT-MP [7]: converted to AZT first then to AZTmp; efflux of ala-AZT-MP [8]: only detectable from BT20 cells; Tmax ([2]; plasma, 200 mg/kg, mice, after Compound 003, route not distinguished): < 5 min |
| CCOP(=O)(OCC)Oc1ccc([N+](=O)[O-])cc1 [paraoxon] |  |  |  |  |  |  |  |  | paraoxon>BNPP>PMSF>physostigmine | inhibition of metabolism of Compound 003 to ala-AZT-MP [9]: most potent inhibitor; also recorded: only paraoxon was effective in inhibiting the metabolism |
